In PubChem BioAssay AID248 (DTP/NCI, 2004):
Several values for one entry are separate records, joined by “and”; a condition that tells them apart may be missing. Identical values can stand only once. Toxic doses and inconclusive results are not listed. Cut-off read from the data, not from the text of the source: active = T/C of 150% or more; inactive = T/C below 125%.

System: L1210 leukemia ip in BDF1 mice, survival T/C
Experiment: NCI In Vivo Anticancer Drug Screen. Data for tumor model L1210 Leukemia (intraperitoneal) in B6D2F1 (BDF1) mice
Conditions: endpoint: mean survival time, higher = longer survival
How it was run: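 Survival endpoint. Drug-treated group vs vehicle group, expressed as T divided by C. Tumor passaged by transplantation.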

[1] = dose: 100.0 mg/kg/injection, schedule: Q01DX001 (ip), vehicle: Klucel (hydroxypropylcellulose) (HPC)
[2] = dose: 400.0 mg/kg/injection, schedule: Q01DX001 (ip), vehicle: Klucel (hydroxypropylcellulose) (HPC)
[3] = dose: 100.0 mg/kg/injection, schedule: Q01DX001 (ip), vehicle: other
[4] = dose: 200.0 mg/kg/injection, schedule: Q01DX001 (ip), vehicle: other
[5] = dose: 400.0 mg/kg/injection, schedule: Q01DX001 (ip), vehicle: other
[6] = dose: 100.0 mg/kg/injection, schedule: Q04DX003 (ip), vehicle: saline
[7] = dose: 200.0 mg/kg/injection, schedule: Q04DX003 (ip), vehicle: saline
[8] = dose: 400.0 mg/kg/injection, schedule: Q04DX003 (ip), vehicle: saline

Measured: T/C

C[n+]1c(-c2ccc(Cl)c(Cl)c2)c2cc(N)ccc2c2ccccc21
inactive: dose: 3.12 mg/kg/injection, schedule: Q01DX009 (ip), vehicle: water 102 % of control | dose: 6.25 mg/kg/injection, schedule: Q01DX009 (ip), vehicle: water 110 % of control | dose: 12.5 mg/kg/injection, schedule: Q01DX009 (ip), vehicle: water 104 % of control | dose: 12.5 mg/kg/injection, schedule: Q04DX003 (ip), vehicle: water 105 % of control | dose: 25.0 mg/kg/injection, schedule: Q04DX003 (ip), vehicle: water 93 % of control

CC1C(C(=O)c2ccc(-c3ccccc3)cc2)N1c1ccccc1 (stereo unspecified)
inactive: [1] 94 % of control | [2] 94 % of control

CCSC(=O)n1ncc2cc(Cl)ccc21
inactive: [3] 105 % of control | [4] 97 % of control | [5] 108 % of control

O/N=C/c1ccc2c(c1)OCO2
inactive: dose: 50.0 mg/kg/injection, schedule: Q01DX001 (ip), vehicle: saline 96 % of control | dose: 100.0 mg/kg/injection, schedule: Q01DX001 (ip), vehicle: saline 96 % of control | dose: 100.0 mg/kg/injection, schedule: Q04DX002 (ip), vehicle: gum acacia 106 % of control | dose: 200.0 mg/kg/injection, schedule: Q01DX001 (ip), vehicle: saline 102 % of control | dose: 200.0 mg/kg/injection, schedule: Q04DX002 (ip), vehicle: gum acacia 110 % of control | dose: 400.0 mg/kg/injection, schedule: Q01DX001 (ip), vehicle: saline 96 % of control | dose: 400.0 mg/kg/injection, schedule: Q04DX002 (ip), vehicle: gum acacia 92 % of control

BrC=C=C1CCCCC1
inactive: dose: 100.0 mg/kg/injection, schedule: Q01DX009 (ip), vehicle: saline 98 % of control | dose: 200.0 mg/kg/injection, schedule: Q01DX009 (ip), vehicle: saline 93 % of control | dose: 400.0 mg/kg/injection, schedule: Q01DX009 (ip), vehicle: saline 95 % of control

CC(C)(C)OB(OC(C)(C)C)OC(C)(C)C
inactive: dose: 25.0 mg/kg/injection, schedule: Q01DX009 (ip), vehicle: other 105 % of control | dose: 50.0 mg/kg/injection, schedule: Q01DX009 (ip), vehicle: other 98 % of control | dose: 100.0 mg/kg/injection, schedule: Q01DX009 (ip), vehicle: other 109 % of control | [6] 98 % of control | dose: 200.0 mg/kg/injection, schedule: Q01DX009 (ip), vehicle: other 104 % of control | [7] 102 % of control | [8] 109 % of control

O=C(C[n+]1cccc2ccccc21)c1ccc(-c2ccc(C(=O)C[n+]3cccc4ccccc43)cc2)cc1
inactive: dose: 0.13 mg/kg/injection, schedule: Q04DX003 (ip), vehicle: saline 103 % of control | dose: 0.25 mg/kg/injection, schedule: Q04DX003 (ip), vehicle: saline 103 % of control | dose: 0.5 mg/kg/injection, schedule: Q04DX003 (ip), vehicle: saline 102 % of control

COc1ccc(C(=NN=C(N)N)c2ccc(OC)cc2)cc1
inactive: dose: 15.0 mg/kg/injection, schedule: Q01DX Z (ip), vehicle: saline 96 % of control | dose: 30.0 mg/kg/injection, schedule: Q01DX Z (ip), vehicle: saline 100 % of control | dose: 30.0 mg/kg/injection, schedule: Q01DX Z (oral), vehicle: saline 105 % of control | dose: 60.0 mg/kg/injection, schedule: Q01DX Z (ip), vehicle: saline 96 % of control | dose: 60.0 mg/kg/injection, schedule: Q01DX Z (oral), vehicle: saline 97 % of control | dose: 120.0 mg/kg/injection, schedule: Q01DX Z (oral), vehicle: saline 105 % of control | dose: 240.0 mg/kg/injection, schedule: Q01DX Z (oral), vehicle: saline 92 % of control | dose: 480.0 mg/kg/injection, schedule: Q01DX Z (oral), vehicle: saline 94 % of control

CCCCCCCCCCCCCCCCCCNC(=S)Nc1ccccc1
inactive: dose: 100.0 mg/kg/injection, schedule: Q04DX003 (ip), vehicle: saline with Tween-80 95 % of control | dose: 200.0 mg/kg/injection, schedule: Q04DX003 (ip), vehicle: saline with Tween-80 90 % of control | dose: 400.0 mg/kg/injection, schedule: Q04DX003 (ip), vehicle: saline with Tween-80 92 % of control

O=C(O)Cc1ccc2c(c1)C(=O)C(=O)N2
inactive: [6] 95 % of control | [7] 102 % of control | [8] 89 % of control

COc1cc(C)c(C(=O)c2ccccc2NS(=O)(=O)c2ccc(C)cc2)cc1OC
inactive: dose: 50.0 mg/kg/injection, schedule: Q01DX001 (ip), vehicle: other 98 % of control | [3] 95 % of control | [4] 92 % of control | [5] 104 % of control

O=C(Nc1ccc(C2=NCCN2)c(Cl)c1)c1ccc(C(=O)Nc2ccc(C3=NCCN3)c(Cl)c2)cc1
inactive: dose: 1.87 mg/kg/injection, schedule: Q01DX Z (ip), vehicle: carboxymethylcellulose (CMC) 124 % of control | dose: 3.75 mg/kg/injection, schedule: Q01DX Z (ip), vehicle: carboxymethylcellulose (CMC) 124 % of control | dose: 7.5 mg/kg/injection, schedule: Q01DX Z (ip), vehicle: carboxymethylcellulose (CMC) 117 % of control | dose: 30.0 mg/kg/injection, schedule: Q01DX Z (ip), vehicle: carboxymethylcellulose (CMC) 120 % of control | dose: 120.0 mg/kg/injection, schedule: Q01DX Z (ip), vehicle: carboxymethylcellulose (CMC) 86 % of control

Cc1ccc(NC(=O)c2ccco2)cc1Cl
inactive: [1] 93 % of control | dose: 100.0 mg/kg/injection, schedule: Q04DX002 (ip), vehicle: Klucel (hydroxypropylcellulose) (HPC) 102 % of control | dose: 200.0 mg/kg/injection, schedule: Q01DX001 (ip), vehicle: Klucel (hydroxypropylcellulose) (HPC) 89 % of control | dose: 200.0 mg/kg/injection, schedule: Q04DX002 (ip), vehicle: Klucel (hydroxypropylcellulose) (HPC) 118 % of control | [2] 105 % of control | dose: 400.0 mg/kg/injection, schedule: Q04DX002 (ip), vehicle: Klucel (hydroxypropylcellulose) (HPC) 123 % of control

Cn1c(=O)c2c(nc(N/N=C/c3ccc(O)cc3)n2C)n(C)c1=O
inactive: dose: 44.0 mg/kg/injection, schedule: Q01DX Z (ip), vehicle: methylcellulose (MC) 94 % of control | dose: 66.0 mg/kg/injection, schedule: Q01DX Z (ip), vehicle: methylcellulose (MC) 97 % of control | dose: 100.0 mg/kg/injection, schedule: Q01DX Z (ip), vehicle: methylcellulose (MC) 96 % of control

COc1cc(OC)c(-c2nc3ccccc3c(=O)o2)cc1OC
inactive: dose: 75.0 mg/kg/injection, schedule: Q01DX009 (ip), vehicle: Klucel (hydroxypropylcellulose) (HPC) 93 % of control | dose: 150.0 mg/kg/injection, schedule: Q01DX009 (ip), vehicle: Klucel (hydroxypropylcellulose) (HPC) 97 % of control | dose: 300.0 mg/kg/injection, schedule: Q01DX009 (ip), vehicle: Klucel (hydroxypropylcellulose) (HPC) 101 % of control

C=Cn1cc[n+](Cc2ccccc2)c1C
inactive: dose: 10.0 mg/kg/injection, schedule: Q01DX009 (ip), vehicle: saline 101 % of control and 104 % of control | dose: 10.0 mg/kg/injection, schedule: Q04DX002 (ip), vehicle: saline 108 % of control and 90 % of control | dose: 20.0 mg/kg/injection, schedule: Q01DX009 (ip), vehicle: saline 105 % of control | dose: 20.0 mg/kg/injection, schedule: Q04DX002 (ip), vehicle: saline 94 % of control and 97 % of control | dose: 40.0 mg/kg/injection, schedule: Q01DX009 (ip), vehicle: saline 100 % of control and 116 % of control | dose: 40.0 mg/kg/injection, schedule: Q04DX002 (ip), vehicle: saline 97 % of control and 102 % of control
